Measurements as given in patent US20070014721A1, “Hydrazide conjugates as imaging agents” (priority 2005, published 2007).
Read-outs that look alike come from different tables or passages of the source. *1 amine or outer side, *2 acyl side, *3 side chain or, on linkers, in order; H or OH if unused. Where a SMILES comes first, the peptide text is derived from it. [ ]: non-standard residue; d: D form. The star is where a group is joined. PABC = O=C(OCc1ccc(N[*:1])cc1)[*:2]; hPhe = N[C@@H](CCc1ccccc1)C(=O)O; X1 = CC(=O)NCCCCCC(=O)NN*; Boc = CC(C)(C)OC(=O)*; Nlys = NCCCCNCC(=O)O; X2 = CC(=O)NN*

Tests used:
Aminopeptidase N = Aminopeptidase N (Homo sapiens, UniProt P15144); test: Aminopeptidase N cleavage of test substrates; assay type: biochemical; conditions: Boc removed from N-terminus before assay; 0.5 mM test substrate, 0.02 U APN, 37° C, 25 minutes
Aminopeptidase N, sequence (P15144 whole entry, species assumed): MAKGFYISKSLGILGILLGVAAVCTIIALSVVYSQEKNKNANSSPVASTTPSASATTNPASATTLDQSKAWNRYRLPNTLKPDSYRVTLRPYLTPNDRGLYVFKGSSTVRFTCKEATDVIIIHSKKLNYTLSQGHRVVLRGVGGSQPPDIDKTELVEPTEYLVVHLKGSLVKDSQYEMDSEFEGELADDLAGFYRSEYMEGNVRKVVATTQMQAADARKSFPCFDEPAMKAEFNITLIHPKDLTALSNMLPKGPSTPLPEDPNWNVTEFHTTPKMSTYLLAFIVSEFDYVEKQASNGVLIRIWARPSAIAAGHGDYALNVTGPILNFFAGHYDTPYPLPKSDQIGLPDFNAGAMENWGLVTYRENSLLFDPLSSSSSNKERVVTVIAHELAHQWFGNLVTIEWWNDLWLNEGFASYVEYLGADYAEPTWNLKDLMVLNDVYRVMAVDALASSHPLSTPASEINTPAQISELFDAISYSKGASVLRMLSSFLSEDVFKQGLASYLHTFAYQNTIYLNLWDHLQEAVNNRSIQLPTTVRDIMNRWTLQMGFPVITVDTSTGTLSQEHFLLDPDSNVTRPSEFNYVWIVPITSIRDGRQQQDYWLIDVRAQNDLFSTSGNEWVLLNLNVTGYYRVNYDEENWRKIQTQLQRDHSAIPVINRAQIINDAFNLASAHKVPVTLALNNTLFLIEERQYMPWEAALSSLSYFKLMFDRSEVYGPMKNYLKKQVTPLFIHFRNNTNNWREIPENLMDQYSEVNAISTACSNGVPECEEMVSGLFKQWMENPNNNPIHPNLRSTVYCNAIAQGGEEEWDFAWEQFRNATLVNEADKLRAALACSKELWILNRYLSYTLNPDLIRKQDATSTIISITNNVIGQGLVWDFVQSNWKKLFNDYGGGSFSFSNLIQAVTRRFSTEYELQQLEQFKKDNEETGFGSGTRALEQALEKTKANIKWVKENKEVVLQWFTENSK
Procedure: The test compounds were dissolved in 50:50 TFA:dichloromethane and allowed to stand at ambient temperature under nitrogen for 10 minutes to remove the Boc protecting group from the N-terminus amino acid. The solutions were concentrated and the resulting oily residue was dissolved in 50:50 acetonitrile:water and lyophilized. The resulting flocculent solids were used directly in the APN assay.
Aminopeptidase N cleaves amino acids at the N-terminus of proteins and peptides attached to another amino acid. A stock solution of test substrates was prepared in 100% DMSO at a concentration of 8 mM. The stock solution (4.7 μL) was added to buffer (50 mM Hepes/pH 7.5, 10 mM CaCl2, 0.1% Brij) for a final concentration of 0.5 mM test substrate in the reaction. To this reaction solution 0.02 U of the enzyme (APN) was added, the solution was mixed, and immediately 30 μL of the mix was transferred to HPLC vials containing acetic acid (15 μL) for t=0 minutes measurement. The rest of the mix in the test tube was incubated at 37° C. for 25 minutes. At the 25 minutes time point 30 μL of the mix was transferred to an HPLC vial containing acetic acid (15 μl) for the t=25 minute measurement. The test substrates and products were separated by reversed phase HPLC on a Zorbax SB-C18 column (4.6×150 mm, 5 micron) using a water:acetonitrile gradient containing 0.1% TFA at a flow rate of 1.0 mL/min and with UV detection. The peak areas were integrated and the substrate peak area was used to determine rate constant k in the following equation: K={(% hydrolyzed/100)*[S]}/[E]*[time] where S=test substrate concentration in μmoles
E=aminopeptidase N concentration in units/ml
K=μmoles of substrate hydrolyzed/minute/unit enzyme

[1] = system: Rabbit plaque aorta or normal rabbit aorta; test: Ex vivo blood vessel binding assay; design: species or system New Zealand white rabbits; conditions: radiolabeled compound incubated with rabbit aorta (0.5 cm) in phosphate buffered saline for 2 hours at 37° C; bound compound as percentage of the incubated compound
From the text: Normal aorta was obtained from New Zealand white rabbits. Aorta bearing atherosclerotic plaque was obtained from New Zealand white rabbits balloon stripped along the abdominal aorta and placed on a high fat diet (0.5% cholesterol) for 16-22 weeks. Vascular injury was produced with a 3-F Fogarty catheter along the abdominal aorta and left iliofemoral artery. This procedure generates an accelerated complex lesion development with a lipid rich core covered by a fibrous cap in rabbits. Rabbit plaque aorta or normal rabbit aorta (0.5 cm) was incubated with 10 nCi of ^14C labeled compound or 1.5 μCi of ^99m Tc labeled compound or 0.135 μCi of ^111In labeled compound or 0.135 μCi of ^68Ga labeled compound or 0.135 µCi of ^153Gd labeled compound diluted in phosphate buffered saline (450 μL) for 2 hours at 37° C. The supernatant from this sample was collected and analyzed by HPLC to determine compound stability in presence of blood vessels. The blood vessel tissue was then washed with phosphate buffered saline (3×10 mL). Phosphate buffered saline (10 ml) was added to the tissue and incubated at 37° C. for 1 hour. The tissue was then washed with phosphate buffered saline (3×10 mL). The washed tissue was oxidized in a tissue oxidizer for C-14 labeled compounds. The counts in the oxidized tissue were determined on a beta counter. Blood vessels incubated with ^99m Tc labeled compound or ^111In labeled compound or ^68Ga labeled compound or ^153Gd labeled compound were counted on a gamma counter. The amount of compound bound to the tissue was determined as a percentage of the incubated compound. This was calculated using the following formula: [formula]

[2] = system: aorta of apolipoprotein E (apoE) knockout mouse; conditions: in vivo
Procedure: (§1) Mice were fed a high-fat diet to accelerate plaque formation and compounds were tested in the mice between 37-41 weeks on diet. Test compounds were radiolabeled (^14C, ^99mTc, or ^111In as described above) and administered at 0.02-4.0 mCi/kg to anesthetized mice in a single, bolus injection via the tail vein. Blood samples were collected via the tail between 0-30 minutes postinjection for pharmacokinetic analysis and mice were euthanized by CO2 at 60 minutes for tissue harvesting. The aorta were flushed with saline through the left ventricle exiting via the femoral vein. The aorta were then removed from the heart to the renal bifurcation and additional tissue samples collected (blood, muscle, liver, kidney, heart, lung, spleen and innominate artery). All samples were weighed and assayed for radioactivity. Tissue uptake is expressed as percent of injected dose per gram of tissue (% ID/g). The aorta to blood ratios were calculated from the % ID/g data.

[3] = system: aorta of atherosclerotic rabbit model; conditions: in vivo
Procedure: (§2) Atherosclerosis was induced in New Zealand White male rabbits (3 kg) with aortic balloon endothelial injury followed by feeding a 0.5% cholesterol diet for 22 weeks. Test compounds were radiolabeled(^14C, ^99mTc, or ^111In as described above) and administered at 0.02-1.0 mCi/kg to anesthetized rabbits in a single, bolus injection vis the marginal ear vein. Blood samples were collected from the central ear artery at 0, 2, 5, 7, 10, 15, 30, and 60 minutes post injection. Rabbits were euthanized at 60 minutes post injection for tissue harvesting (blood, muscle, bile, urine, kidney, liver, spleen, heart, lung, colon, small intestine, stomach, testes). Abdominal aorta (upper, middle, and lower) and left and right femoral arteries were collected. Both plaque bearing and non-plaque bearing rabbits were administered compounds to compare aorta uptake. All samples were weighed and assayed for radioactivity. Tissue uptake is expressed as percent of injected dose per gram of tissue (% ID/g). The aorta to blood ratios were calculated from the % ID/g data.

[4] = mouse, in vivo, iv
Procedure: as §1

[5] = system: aorta of apolipoprotein E (apoE) knockout mouse; test: In vivo ApoE mouse aorta uptake study; conditions: 60 min postinjection; for Aorta (% ID/g): ApoE mouse on high-fat diet 37-41 weeks, tail vein bolus; for Aorta/Blood Ratio: ApoE mouse, calculated from the % ID/g data
Procedure: as §1

[6] = system: aorta of atherosclerotic rabbit model; test: In vivo rabbit aorta uptake study, atherosclerotic (plaque) rabbit; conditions: 60 minutes postinjection; for Aorta/Blood (Plaque Rabbit): calculated from the % ID/g data; for Aorta Uptake, % ID/g (Plaque Rabbit): marginal ear vein bolus
Procedure: as §2

[7] = system: aorta of normal (non-plaque bearing) rabbit; test: In vivo rabbit aorta uptake study, normal rabbit; design: species or system New Zealand White male rabbits; conditions: 60 minutes postinjection; for Aorta/Blood (Normal Rabbit): calculated from the % ID/g data; for Aorta Uptake, % ID/g (Normal Rabbit): marginal ear vein bolus
From the text: All samples were weighed and assayed for radioactivity.

| Aorta/Blood Ratio [2] | Aorta/Blood (Plaque Rabbit) [3] | tissue uptake at 1 h [4] [%ID/g] | Aorta (% ID/g) [5] [% ID/g] | Aorta/Blood Ratio [5] | Aorta/Blood (Plaque Rabbit) [6] | Aorta Uptake, % ID/g (Plaque Rabbit) [6] [% ID/g] | Aorta/Blood (Normal Rabbit) [7] | Aorta Uptake, % ID/g (Normal Rabbit) [7] [% ID/g] | Compound | Rate of APN Hydrolysis of Test Substrates (Aminopeptidase N) [μmoles/minute/U] | Tissue Binding % [1] [%] |
| --- | --- | --- | --- | --- | --- | --- | --- | --- | --- | --- | --- |
| – | – | – | – | – | – | – | – | – | CC(C)C[C@H](NC(=O)OC(C)(C)C)C(=O)Nc1ccc(COC(=O)N[C@H](CC(C)C)C(=O)NNC(=O)CCCCCN)cc1.O=C(O)C(F)(F)F [Example 13, N-((2R)-2-{[(4-{(2S)-2-[(tert-Butoxy)carbonylamino]-4-methylpentanoylamino}phenyl)methoxy]carbonylamino}-4-methylpentanoylamino)-6-aminohexanamide, Trifluoroacetic Acid Salt] | 0.33 | – |
| – | – | – | – | – | – | – | – | – | CC(C)C[C@H](NC(=O)OC(C)(C)C)C(=O)N[C@H](CC(C)C)C(=O)NNC(=O)CCCCCN.O=C(O)C(F)(F)F [Example 80, N-((2R)-2-{(2S)-2-[(tert-Butoxy)carbonylamino]-4-methylpentanoylamino}-4-methylpentanoylamino)-6-aminohexanamide, Trifluoroacetic Acid Salt] | 0.00 | – |
| – | – | – | – | – | – | – | – | – | CC(C)C[C@H](NC(=O)OC(C)(C)C)C(=O)Nc1ccc(C[C@@H](NC(=O)OC(C)(C)C)C(=O)NNC(=O)CCCCCN)cc1.O=CO [Example 83, N-[(2R)-3-(4-{(2S)-2-[(tert-Butoxy)carbonylamino]-4-methylpentanoylamino}phenyl)-2-[(tert-butoxy)carbonylamino]propanoylamino]-6-aminohexanamide, Formic Acid Salt] | 0.43 | – |
| 2.3 | 1.93 | – | – | – | – | – | – | – | CC(=O)NCCCCCC(=O)NNC(=O)[C@@H](CC(C)C)NC(=O)OCc1ccc(NC(=O)[C@H](CC(C)C)NC(=O)[C@H](CC(C)C)NC(=O)CN(CCCCNC(=O)OC(C)(C)C)C(=O)[C@H](CC(C)C)NC(=O)[C@@H]2CCCN2C(C)=O)cc1 [Example 128, Ac-PL-NLys(Boc)˜LL-PABA-CO-d-Leu-Ahxh-H] (Ac-PL[Nlys](Boc)LL[PABC][dL]-X1) | – | 5.77 |
| 1.9 | – | 2.1 | – | – | – | – | – | – | CC(=O)NNC(=O)[C@@H](CC(C)C)NC(=O)OCc1ccc(NC(=O)[C@H](CC(C)C)NC(=O)[C@H](CCc2ccccc2)NC(=O)CN(CCCCNC(=O)OC(C)(C)C)C(=O)[C@H](CC(C)C)NC(=O)[C@@H]2CCCN2C(C)=O)cc1 [Example 142] (Ac-PL[Nlys](Boc)[hPhe]L[PABC][dL]-X2) | – | – |
| – | – | – | 8.9 | 2.2 | 3.98 | 0.088 | – | – | Boc-d-Leu-Ahxh-H [Example 120] | – | 14.09 |
| – | – | – | 17.2 | 5.0 | 2.92 | 0.096 | – | – | Boc-d-Leu-Inph-H [Example 139] | – | 18.36 |
| 8.8 | 9.05 | – | – | – | – | – | – | – | Boc-d-Phe[p-(Ac-PL-NLys(Boc)˜Hphe-L-NH)]-Ahxh-H [Example 147] | – | 44.73 |
| – | – | – | 15.7 | 11.7 | – | – | 4.72 | 0.146 | H-d-1-Nal-Ambh-DTPA [Example 183] | – | 24.41 |
| – | – | – | 12.9 | 8.7 | 2.76 | 0.127 | 4.78 | 0.129 | H-d-Hphe-Ambh-DTPA [Example 203] | – | 17.96 |
| – | – | – | – | – | 1.31 | 0.092 | – | – | H-d-Leu-Ahxh-Apa-DOTA [Example 215] | – | 11.54 |
| – | – | – | 5.1 | 2.0 | 1.67 | 0.080 | 2.21 | 0.065 | H-d-Leu-Ahxh-DOTA [Example 155] | – | 3.49 |
| – | – | – | 12.2 | 13.3 | – | – | 4.95 | 0.123 | H-d-Leu-Apah-Ahx-DTPA [Example 176] | – | 25.21 |
| – | – | – | 9.5 | 3.0 | 4.08 | 0.083 | – | – | H-d-Leu-Apah-DTPA [Example 159] | – | 10.10 |
| – | – | – | 6.7 | 8.8 | 2.89 | 0.168 | 4.49 | 0.143 | H-d-Leu-Apph-DTPA [Example 171] | – | 16.56 |
| – | – | – | 8.2 | 7.5 | 3.56 | 0.085 | – | – | H-d-Phe-Apah-DTPA [Example 164] | – | 13.88 |
| – | – | – | 8.7 | 11.0 | – | – | 5.42 | 0.111 | H-d-Phe-Apph-DTPA [Example 174] | – | 17.15 |
| – | – | – | 14.8 | 8.7 | – | – | 5.58 | 0.135 | H-d-Trp-Ambh-DTPA [Example 208] | – | 14.91 |
| – | – | – | 5.3 | 1.5 | – | – | – | – | H-d-Val-Ahxh-DTPA [Example 191] | – | 3.02 |
| – | – | – | 7.0 | 1.5 | – | – | – | – | [H-d-Cys(Bzl)-Apph]2EDTA[APEEPA-DTPA]2 [Example 186] | – | 7.78 |
